≈ marks a conversion by molar mass, not a printed value.
Assays:
Candida albicans [1] = experiment: Antifungal activity against Candida albicans CPCC 400616 assessed as inhibition of fungal growth by microdilution method; type: functional
Candida albicans [2] = experiment: Antifungal activity against Candida albicans ATCC SC5314 assessed as inhibition of fungal growth by microdilution method; type: functional
Nakaseomyces glabratus = experiment: Antifungal activity against clinical isolate Candida glabrata assessed as inhibition of fungal growth by microdilution method; type: functional
Candida parapsilosis = experiment: Antifungal activity against Candida parapsilosis 22019 assessed as inhibition of fungal growth by microdilution method; type: functional; settings: Lodderomyces parapsilosis
Pichia kudriavzevii = experiment: Antifungal activity against Candida krusei AS 2.1045 assessed as inhibition of fungal growth by microdilution method; type: functional
Candida tropicalis = experiment: Antifungal activity against Candida tropicalis CGMCC 2.3739 assessed as inhibition of fungal growth by microdilution method; type: functional
Cryptococcus neoformans = experiment: Antifungal activity against Cryptococcus neoformans CGMCC 2.3161 assessed as inhibition of fungal growth by microdilution method; type: functional
Aspergillus fumigatus = experiment: Antifungal activity against Aspergillus fumigatus CGMCC 3.7795 assessed as inhibition of fungal growth by microdilution method; type: functional
[3] = target: T1, Lanosterol 14-alpha demethylase (Candida albicans (strain SC5314 / ATCC MYA-2876) (Yeast), UniProt P10613); experiment: Inhibition of CYP51 in Candida albicans SC5314 assessed as ergosterol level at 8 ug/ml by GC-MS analysis (reference value: 98.3 %); parameters: scale not given: the % may be the effect or the level left; settings: at 8 µg/mL
[4] = target: T1, Lanosterol 14-alpha demethylase; experiment: Inhibition of CYP51 in Candida albicans SC5314 assessed as ergosterol level at 16 ug/ml by GC-MS analysis (reference value: 98.3 %); parameters: scale not given: the % may be the effect or the level left; settings: at 16 µg/mL
[5] = target: T1, Lanosterol 14-alpha demethylase; experiment: Inhibition of CYP51 in Candida albicans SC5314 assessed as ergosterol level at 32 ug/ml by GC-MS analysis (reference value: 98.3 %); parameters: scale not given: the % may be the effect or the level left; settings: at 32 µg/mL
[6] = target: T1, Lanosterol 14-alpha demethylase; experiment: Inhibition of CYP51 in Candida albicans SC5314 assessed as ergosterol level at 64 ug/ml by GC-MS analysis (reference value: 98.3 %); parameters: scale not given: the % may be the effect or the level left; settings: at 64 µg/mL
[7] = target: T1, Lanosterol 14-alpha demethylase; experiment: Inhibition of CYP51 in Candida albicans SC5314 assessed as obtusifoliol level at 8 ug/ml by GC-MS analysis (reference value: 0 %); parameters: scale not given: the % may be the effect or the level left; settings: at 8 µg/mL
[8] = target: T1, Lanosterol 14-alpha demethylase; experiment: Inhibition of CYP51 in Candida albicans SC5314 assessed as obtusifoliol level at 16 ug/ml by GC-MS analysis (reference value: 0 %); parameters: scale not given: the % may be the effect or the level left; settings: at 16 µg/mL
[9] = target: T1, Lanosterol 14-alpha demethylase; experiment: Inhibition of CYP51 in Candida albicans SC5314 assessed as obtusifoliol level at 32 ug/ml by GC-MS analysis (reference value: 0 %); parameters: scale not given: the % may be the effect or the level left; settings: at 32 µg/mL
[10] = target: T1, Lanosterol 14-alpha demethylase; experiment: Inhibition of CYP51 in Candida albicans SC5314 assessed as obtusifoliol level at 64 ug/ml by GC-MS analysis (reference value: 0 %); parameters: scale not given: the % may be the effect or the level left; settings: at 64 µg/mL
[11] = target: T1, Lanosterol 14-alpha demethylase; experiment: Inhibition of CYP51 in Candida albicans SC5314 assessed as lanosterol level at 8 ug/ml by GC-MS analysis (reference value: 1.7 %); parameters: scale not given: the % may be the effect or the level left; settings: at 8 µg/mL
[12] = target: T1, Lanosterol 14-alpha demethylase; experiment: Inhibition of CYP51 in Candida albicans SC5314 assessed as lanosterol level at 16 ug/ml by GC-MS analysis (reference value: 1.7 %); parameters: scale not given: the % may be the effect or the level left; settings: at 16 µg/mL
[13] = target: T1, Lanosterol 14-alpha demethylase; experiment: Inhibition of CYP51 in Candida albicans SC5314 assessed as lanosterol level at 32 ug/ml by GC-MS analysis (reference value: 1.7 %); parameters: scale not given: the % may be the effect or the level left; settings: at 32 µg/mL
[14] = target: T1, Lanosterol 14-alpha demethylase; experiment: Inhibition of CYP51 in Candida albicans SC5314 assessed as lanosterol level at 64 ug/ml by GC-MS analysis (reference value: 1.7 %); parameters: scale not given: the % may be the effect or the level left; settings: at 64 µg/mL
[15] = target: T1, Lanosterol 14-alpha demethylase; experiment: Inhibition of CYP51 in Candida albicans SC5314 assessed as eburicol level at 8 ug/ml by GC-MS analysis (reference value: 0 %); parameters: scale not given: the % may be the effect or the level left; settings: at 8 µg/mL
[16] = target: T1, Lanosterol 14-alpha demethylase; experiment: Inhibition of CYP51 in Candida albicans SC5314 assessed as eburicol level at 16 ug/ml by GC-MS analysis (reference value: 0 %); parameters: scale not given: the % may be the effect or the level left; settings: at 16 µg/mL
[17] = target: T1, Lanosterol 14-alpha demethylase; experiment: Inhibition of CYP51 in Candida albicans SC5314 assessed as eburicol level at 32 ug/ml by GC-MS analysis (reference value: 0 %); parameters: scale not given: the % may be the effect or the level left; settings: at 32 µg/mL
[18] = target: T1, Lanosterol 14-alpha demethylase; experiment: Inhibition of CYP51 in Candida albicans SC5314 assessed as eburicol level at 64 ug/ml by GC-MS analysis (reference value: 0 %); parameters: scale not given: the % may be the effect or the level left; settings: at 64 µg/mL
HL-60 = experiment: Cytotoxicity against human HL-60 cells assessed as inhibition of cell growth by MTT assay; type: functional, cell-based
MDA-MB-231 = experiment: Cytotoxicity against human MDA-MB-231 cells assessed as inhibition of cell growth by MTT assay; type: functional, cell-based
PC-3 = experiment: Cytotoxicity against human PC-3 cells assessed as inhibition of cell growth by MTT assay; type: functional, cell-based
[19] = target: T1, Lanosterol 14-alpha demethylase; experiment: Inhibition of CYP51 in Candida albicans SC5314 assessed as ergosterol level at 1 ug/ml by GC-MS analysis (reference value: 98.3 %); parameters: scale not given: the % may be the effect or the level left; settings: at 1 µg/mL
[20] = target: T1, Lanosterol 14-alpha demethylase; experiment: Inhibition of CYP51 in Candida albicans SC5314 assessed as ergosterol level at 2 ug/ml by GC-MS analysis (reference value: 98.3 %); parameters: scale not given: the % may be the effect or the level left; settings: at 2 µg/mL
[21] = target: T1, Lanosterol 14-alpha demethylase; experiment: Inhibition of CYP51 in Candida albicans SC5314 assessed as ergosterol level at 4 ug/ml by GC-MS analysis (reference value: 98.3 %); parameters: scale not given: the % may be the effect or the level left; settings: at 4 µg/mL
[22] = target: T1, Lanosterol 14-alpha demethylase; experiment: Inhibition of CYP51 in Candida albicans SC5314 assessed as obtusifoliol level at 1 ug/ml by GC-MS analysis (reference value: 0 %); parameters: scale not given: the % may be the effect or the level left; settings: at 1 µg/mL
[23] = target: T1, Lanosterol 14-alpha demethylase; experiment: Inhibition of CYP51 in Candida albicans SC5314 assessed as obtusifoliol level at 2 ug/ml by GC-MS analysis (reference value: 0 %); parameters: scale not given: the % may be the effect or the level left; settings: at 2 µg/mL
[24] = target: T1, Lanosterol 14-alpha demethylase; experiment: Inhibition of CYP51 in Candida albicans SC5314 assessed as obtusifoliol level at 4 ug/ml by GC-MS analysis (reference value: 0 %); parameters: scale not given: the % may be the effect or the level left; settings: at 4 µg/mL
[25] = target: T1, Lanosterol 14-alpha demethylase; experiment: Inhibition of CYP51 in Candida albicans SC5314 assessed as lanosterol level at 1 ug/ml by GC-MS analysis (reference value: 1.7 %); parameters: scale not given: the % may be the effect or the level left; settings: at 1 µg/mL
[26] = target: T1, Lanosterol 14-alpha demethylase; experiment: Inhibition of CYP51 in Candida albicans SC5314 assessed as lanosterol level at 2 ug/ml by GC-MS analysis (reference value: 1.7 %); parameters: scale not given: the % may be the effect or the level left; settings: at 2 µg/mL
[27] = target: T1, Lanosterol 14-alpha demethylase; experiment: Inhibition of CYP51 in Candida albicans SC5314 assessed as lanosterol level at 4 ug/ml by GC-MS analysis (reference value: 1.7 %); parameters: scale not given: the % may be the effect or the level left; settings: at 4 µg/mL
[28] = target: T1, Lanosterol 14-alpha demethylase; experiment: Inhibition of CYP51 in Candida albicans SC5314 assessed as eburicol level at 1 ug/ml by GC-MS analysis (reference value: 0 %); parameters: scale not given: the % may be the effect or the level left; settings: at 1 µg/mL
[29] = target: T1, Lanosterol 14-alpha demethylase; experiment: Inhibition of CYP51 in Candida albicans SC5314 assessed as eburicol level at 2 ug/ml by GC-MS analysis (reference value: 0 %); parameters: scale not given: the % may be the effect or the level left; settings: at 2 µg/mL
[30] = target: T1, Lanosterol 14-alpha demethylase; experiment: Inhibition of CYP51 in Candida albicans SC5314 assessed as eburicol level at 4 ug/ml by GC-MS analysis (reference value: 0 %); parameters: scale not given: the % may be the effect or the level left; settings: at 4 µg/mL
Candida albicans [31] = experiment: Antifungal activity against Candida albicans CPCC 400616 assessed as inhibition of fungal growth; type: functional
Candida albicans [32] = experiment: Antifungal activity against Candida albicans ATCC SC5314 assessed as inhibition of fungal growth; type: functional

T1 sequence (P10613 whole entry): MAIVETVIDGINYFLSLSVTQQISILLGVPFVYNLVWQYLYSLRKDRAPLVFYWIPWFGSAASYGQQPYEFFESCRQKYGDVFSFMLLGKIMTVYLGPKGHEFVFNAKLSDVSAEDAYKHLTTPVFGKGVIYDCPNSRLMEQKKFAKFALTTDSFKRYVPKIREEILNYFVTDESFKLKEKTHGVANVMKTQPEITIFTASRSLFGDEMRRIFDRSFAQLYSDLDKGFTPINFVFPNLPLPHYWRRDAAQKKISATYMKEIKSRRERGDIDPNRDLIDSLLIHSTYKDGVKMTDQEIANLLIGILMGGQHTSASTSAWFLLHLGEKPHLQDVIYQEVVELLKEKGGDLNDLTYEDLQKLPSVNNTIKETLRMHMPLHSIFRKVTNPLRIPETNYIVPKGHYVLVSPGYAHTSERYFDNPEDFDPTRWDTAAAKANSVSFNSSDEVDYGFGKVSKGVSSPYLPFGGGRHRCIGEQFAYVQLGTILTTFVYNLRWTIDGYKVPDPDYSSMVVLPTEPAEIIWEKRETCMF

Compound	MIC (Candida albicans [1]) [µg/mL]	MIC (Candida albicans [2]) [µg/mL]	MIC (Nakaseomyces glabratus) [µg/mL]	MIC (Candida parapsilosis) [µg/mL]	MIC (Pichia kudriavzevii) [µg/mL]	MIC (Candida tropicalis) [µg/mL]	MIC (Cryptococcus neoformans) [µg/mL]	MIC (Aspergillus fumigatus) [µg/mL]	Activity [3] [%]	Activity [7] [%]	Activity [11] [%]	Activity [15] [%]	IC50 (HL-60) [µM]	IC50 (MDA-MB-231) [µM]	IC50 (PC-3) [µM]	Activity [19] [%]	Activity [20] [%]	Activity [21] [%]	Activity [22] [%]	Activity [23] [%]	further results
OC(C[Se]Cc1ccccc1Br)(Cn1cncn1)c1ccc(F)cc1F (stereo unspecified)	0.25	0.01	4	0.125	0.25	0.25	1	2	3.5	11.1	19.2	66.2	18.4	17.9	15.6						Activity [4]: 2.1%; Activity [5]: 0.48%; Activity [6]: 0.18%; Activity [8]: 11.3%; Activity [9]: 9.28%; Activity [10]: 11.9%; Activity [12]: 20.3%; Activity [13]: 21.1%; Activity [14]: 19.6%; Activity [16]: 66.7%; Activity [17]: 69.2%; Activity [18]: 69.3%
COc1ccc([Se]CC(O)(Cn2cncn2)c2ccc(F)cc2F)cc1 (stereo unspecified)	0.25	0.02	0.5	0.125	0.5	0.125	0.03	16	0.38	11.8	19.3	65.7	12.1	18.8	26.7	4.3	3.6	1.4	10.1	10.8	Activity [24]: 11.2%; Activity [25]: 18.4%; Activity [26]: 18.2%; Activity [27]: 19.1%; Activity [28]: 64.3%; Activity [29]: 64.7%; Activity [30]: 64.5%
COc1cccc2c1C(=O)c1c(O)c3c(c(O)c1C2=O)C[C@@](O)(C(=O)CO)C[C@@H]3O[C@H]1C[C@H](N)[C@H](O)[C@H](C)O1 [DOXORUBICIN]													< 0.125								
OC(Cn1cncn1)(Cn1cncn1)c1ccc(F)cc1F [FLUCONAZOLE]						4			1.1	14.1	14.9	69.9	11.6	19.2	16.5	3.9	2.5	1.5	13.9	13.1	Activity [24]: 13.5%; Activity [25]: 14.3%; Activity [26]: 15.7%; Activity [27]: 15.4%; Activity [28]: 67.9%; Activity [29]: 68.7%; Activity [30]: 69.6%
Cc1ccccc1[Se]C(Cn1ccnc1)c1ccc(Cl)cc1 (stereo unspecified)																					MFC (Candida albicans [31]): 0.25 µg/mL (≈ 0.665 µM); MIC (Candida albicans [31]): 0.02 µg/mL (≈ 0.0532 µM); MIC (Candida albicans [32]): 0.03 µg/mL (≈ 0.0798 µM)
OC(C[Se]Cc1ccc(F)cc1)(Cn1cncn1)c1ccc(F)cc1F (stereo unspecified)	0.06	0.03	1	0.25	1	0.5	2	2													
